For one test, the system named is NOD1/2. Description: dSTORM imaging of HeLa NOD1 or NOD2 cells. The format is cell-based, human. The conditions noted are these: S1P 20 µM, 2 h. As to the method:
For dSTORM, HeLa inducible NOD1‐GFP or NOD2‐GFP cells were grown on µ‐Slides with glass bottom (ibidi, Germany) and treated with doxycycline overnight to induce NOD1‐GFP or NOD2‐GFP expression. […] Then, cells were fixed with 4% (v:v) paraformaldehyde in PBS, pH 7.4 for 10 min at room temperature (RT). After washing twice with PBS, cells were incubated with 50 mM glycine in PBS, pH 7.4 for 10 min and permeabilized with 0.05% saponin (Sigma‐Aldrich, 47036), 1% BSA in PBS for 10 min. Rabbit anti‐GFP antibody (ChromoTek) and Alex Fluor 647‐conjugated goad anti‐rabbit antibody (Thermo Fisher Scientific) were diluted in PBS and incubated for 1 h at room temperature. The super resolution imaging was performed with Nanoimager S (Oxford Nanoimaging). For single particle tracking in live cells, Nanoimager S was pre‐warmed at 37°C. […] Medium was then replaced with fresh DMEM without phenol red. Live imaging was performed with Nanoimager S at acquisition speed of 100fps.

Test [1] concerns HeLa inducible NOD1 or NOD2 cells. Description: ELISA of IL6/IL8 in supernatants of HeLa inducible NOD1 or NOD2 cells. The format is cell-based, human. As to the method: (§1) To differentiate THP‐1 into macrophage‐like cells, THP‐1 cells were stimulated with 50 ng/ml phorbol 12‐myristate 13‐acetate (Sigma‐Aldrich, P8139) for 24 h and then incubated with fresh medium for another 48 h. […] To induce NOD1 or NOD2 expression, HeLa NOD1 or NOD2 cells were treated with 0.5 µg/ml or 0.25 µg/ml doxycycline for at least 16 h, respectively. All cells have been checked for mycoplasma contamination regularly. Bone marrow‐derived macrophages (BMDMs) were obtained from tibial and femural bones and generated with DMEM containing 20% L929 cell supernatant, 10% FBS, 5% heat‐inactivated horse serum, 1 mM sodium pyruvate, and 2 mM L‐glutamine. For BMDM stimulation experiments, BMDMs were treated with IFN‐γ (20 ng/ml) overnight before stimulation.
(In general: ELISA stands for enzyme-linked immunosorbent assay.)

Another test has as its system NOD1 and NOD2. Description: Immunoprecipitation with lipid-coated beads. Type of test: binding, human. The following applies: HeLa NOD1-GFP / NOD2-GFP lysates, room temperature 2 h. The method, then: HeLa NOD1 or NOD2 cells were grown overnight and afterward treated with doxycycline overnight to induce NOD1 or NOD2 expression. Cells of one 10‐cm dish were lysed with 500 µl of lysis buffer (25 mM Tris–HCl, pH 7.5, 150 mM NaCl, 1 mM EDTA, 1% NP‐40, and 5% glycerol) supplemented with protease inhibitors (Roche, 05892791001) on ice for 20 min. Lysates were centrifuged at 16,000 × g at 4°C for 10 min, and supernatants were mixed with GFP‐Trap agarose (ChromoTek GmbH, gta‐20) overnight at 4°C. Afterward, agaroses were washed twice with PBS and boiled with sample buffer for SDS–PAGE. For lipid‐coated beads IP, lipid‐coated beads were incubated with supernatants for 2 h at room temperature and then washed with lysis buffer for three times and boiled with sample buffer for SDS–PAGE.

Test [2] has as its system HEK293T NOD1/2 KO cells transfected with NOD1 or NOD2 mutants. Description: IL8 ELISA of HEK293T cells transfected with NOD1/NOD2 mutants. The format is cell-based, human. The method, then: as §1
The mutagenesis was performed with Q5® site‐directed mutagenesis kit (E0554, NEB) according to the manufacturer's instructions. The primers used in this study were as follows: NOD1 E157A F: 5′‐[…]gcg[…]‐3′, NOD1 E157A R: 5′‐[…]‐3′, NOD1 D161A F: 5′‐[…]gcg[…]‐3′, NOD1 D161A R: 5′‐[…]‐3′, NOD1 D203A F: 5′‐[…]gcg[…]‐3′, D203A R: 5′‐[…]‐3′, L218A F: 5′‐[…]gcg[…]‐3′, L218A R: 5′‐[…]‐3′, R237A F: 5′‐[…]gcg[…]‐3′, R237A R: 5′‐[…]‐3′, H257A F: 5′‐[…]gcg[…]‐3′, H257A R: 5′‐[…]‐3′, E267A F: 5′‐[…]gcg[…]‐3′, E267A R: 5′‐[…]‐3′, H290A F: 5′‐[…]gcg[…]‐3′, H290A R: 5′‐[…]‐3′, E306A F: 5′‐[…]gcg[…]‐3′, E306A R: 5′‐[…]‐3′, K324A F: 5′‐[…]gcg[…]‐3′, K324A R: 5′‐[…]‐3′, K328A F: 5′‐[…]gcg[…]‐3′, K328A R: 5′‐[…]‐3′, R340A F: 5′‐[…]gcg[…]‐3′, R340A R: 5′‐[…]‐3′, R344A F: 5′‐[…]gcg[…]‐3′, R344A R: 5′‐[…]‐3′, R350A F: 5′‐[…]gcg[…]‐3′, R350A R: 5′‐[…]‐3′, D372A F: 5′‐[…]gcg[…]‐3′, D372A R: 5′‐[…]‐3′, R373A F: 5′‐[…]gcg[…]‐3′, R373A R: 5′‐[…]‐3′, R399A F: 5′‐[…]gcg[…]‐3′, R399A R: 5′‐[…]‐3′, D423A F: 5′‐[…]gcg[…]‐3′, D423A R: 5′‐[…]‐3′, R435A F: 5′‐5′‐[…]gcg[…]‐3′, R435A R: 5′‐[…]‐3′, Q484A F: 5′‐[…]gcg[…]‐3′, Q484A R: 5′‐[…]‐3′, L495A F: 5′‐[…]gcg[…]‐3′, L495A R: 5′‐[…]‐3′, E514A F: 5′‐[…]gcg[…]‐3′, E514A R: 5′‐[…]‐3′, H517A F: 5′‐[…]gcg[…]‐3′, H517A R: 5′‐[…]‐3′, L540A F: 5′‐[…]gcg[…]‐3′, L540A R: 5′‐[…]‐3′, F544A F: 5′‐[…]gcg[…]‐3′, and F544A R: 5′‐[…]‐3′.

For the compound `CCCCCCCCCCCCC/C=C/[C@@H](O)[C@@H](N)COP(=O)(O)O` [S1P, sphingosine‐1‐phosphate], the “Oligomerization of NOD1/2” value in the test on NOD1/2 is on record as “oligomerization of NOD1/2 induced”. For the same compound, in test [1] (0.5, 5 or 20 µM with digitonin (5 µg/ml), Fig EV4E,F), the “IL6 production compared to iE-DAP or MDP at the same concentration” value was “higher IL6 production”. Also, the “IL6 production on co-stimulation vs single stimulation” value in test [1] (S1P (2 µM) with iE-DAP or MDP (3, 20, 50 µM), digitonin, 20 h) is given as “significantly higher IL6 production”. For the same compound, in test [1] (cytosolic delivery with digitonin (5 µg/ml), 20 h), the “IL6 or IL8 production” value is reported as “induced abundant IL6 or IL8 production”. Besides, the “IL6 or IL8 production” value in test [1] (extracellular stimulation (absence of digitonin), S1P 10 µM) was “did not induce marked IL6 or IL8 production”. The “Immunoprecipitation of NOD1 and NOD2 with lipid-coated beads” value with NOD1 and NOD2 is on record as “specifically immunoprecipitated”. Also, in test [2] (20 µM with digitonin, 20 h), the “IL8 production in cells expressing LRR-deficient NOD1/2 (NOD1/2∆LRR)” value is “elevated” and the “IL8 production in cells expressing NOD1/2 WT” value is recorded as “induced”. In test [2] (20 µM, 48 h, digitonin), the “IL8 production / activation in HEK293T cells expressing NOD2 1007fs” value is on record as “increased”. Besides, the “Activation (IL8) of NOD1 K328A or H517A” value in test [2] (Fig EV5H) is reported as “not”.
